Patent US20190094246A1, “DETECTION OF NEURODEGENERATIVE DISEASES” (AMONETA DIAGNOSTICS SAS, priority 2016, published 2019)

Legend:
[1] = test system: red blood cells (RBCs) from human subjects; assay: Dose-dependent staining of RBCs, flow cytometry (MEDFI); format: cell-based; settings: 0.03, 0.1, 0.3, 1 and 3 μM; RBCs 200 000 cells/mL of 3 human subjects; channel FL1 (Ex. 1), FL3 (Ex. 9)
Method: The blood from an animal or a human subject is sampled in specific 5 mL tube, such as lithium-heparin tube. The blood is manually mixed by inversion before use.
Red blood cells (RBCs) are obtained from whole blood after centrifugation at 200 g for 10 minutes at room temperature. RBCs pellet down and segregate from white blood cells, platelets and plasma. 5 μL of RBCs are pipetted, diluted 1000 times in 5 mL of Flow cytometry buffer (FACS buffer: 150 mM of NaCl; 1 mM of D-Glucose; 5 mM of Na2HPO4; 0.5 mM CaCl2) and either numbered by manual counting on disposable Malassez-like counting cell (X100 Cellule Fast Read, Fisher Scientific, Ref #11762712) with a microscope or counted with Flow count Fluorospheres (Beckman, Ref 7547053) so as to obtain a cell concentration of stock solution to be used in the test. […]
From these different concentration stocks, the same quantity (4) of compounds at desired concentration to be tested is added to erythrocytes in each FACS vial to obtain the same % of DMSO (0.5% of DMSO) at the end. […] In all experiments, a control is performed with the final amount of compound solvent (DMSO alone, without test compound), in order to obtain the auto-fluorescence of the RBCs.
These fluorescences are detected by the gating of erythrocytes in a log FSC/log SSC plot. […]

[2] = test system: RBCs from transgenic APP/PS1 mice versus age-matched Wild-Type mice; assay: RBC staining in Alzheimer animal model, transgenic versus wild type; format: cell-based
From the text: Transgenic mice used in this study carry two mutations associated with early onset AD: mutant amyloid precursor protein (K670N and M671L) and mutant human presenilin 1 (M146V). These transgenic mice develop AD-related phenotype consisting in beta-amyloid peptide overproduction and formation of amyloid plaques in their brain.

COCCOCC#CB(C#CCOCCOC)n1c(C)cc(C)c1/C(=C1\N=C(C)C=C1C)c1ccc(C(=O)NCCCn2cc(C3=C(c4cn(C)c5ccccc45)C(=O)NC3=O)c3ccccc32)cc1 [Ex. 9]
staining of RBCs (index MEDFI) [1]: dose-dependent staining | discrimination between transgenic and wild type mice by RBC staining ([2]; 1 μM, 5 transgenic mice and 6 age-matched wild type mice): excellent accuracy | discrimination between the transgenic mouse group and control mouse group by RBC staining ([2]; concentration not given): good accuracy
